Like-named read-outs stand apart in the source and are kept apart here.
Tests used:
Format in all cases: cell-based
[1] = molecular target: hKv1.3 (Homo sapiens, UniProt P22001); test: cell-based; details: Kv1.3 (IWQ) IC50 (nM, Avg)
[2] = test system: IL-2 secretion from T cells in human whole blood; details: read-out: WB (IL-2) IC50 (nM, Avg)
[3] = test system: IFN-g secretion from T cells in human whole blood
[4] = read-out: WB (IFNg) IC50 (nM, Avg)

hKv1.3, sequence (P22001 whole entry): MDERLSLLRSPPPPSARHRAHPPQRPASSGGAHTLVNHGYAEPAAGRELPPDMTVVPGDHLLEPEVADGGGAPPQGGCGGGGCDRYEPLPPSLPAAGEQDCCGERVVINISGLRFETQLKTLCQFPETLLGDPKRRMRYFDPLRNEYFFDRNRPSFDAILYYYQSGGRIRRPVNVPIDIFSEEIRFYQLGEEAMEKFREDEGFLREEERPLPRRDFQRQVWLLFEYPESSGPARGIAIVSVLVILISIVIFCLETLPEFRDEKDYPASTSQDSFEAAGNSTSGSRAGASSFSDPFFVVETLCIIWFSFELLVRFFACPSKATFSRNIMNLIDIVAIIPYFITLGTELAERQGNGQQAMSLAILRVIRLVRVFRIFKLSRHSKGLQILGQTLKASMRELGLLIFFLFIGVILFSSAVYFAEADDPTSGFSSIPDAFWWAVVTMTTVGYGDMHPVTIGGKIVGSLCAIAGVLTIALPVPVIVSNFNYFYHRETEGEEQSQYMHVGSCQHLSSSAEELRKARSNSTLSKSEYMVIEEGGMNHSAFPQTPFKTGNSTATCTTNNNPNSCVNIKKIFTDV

| Compound | IC50 [1] | IC50 [2] | IC50 [3, 4] | IC50 ([3]; read-out: WB (IFNg) IC5- (nM, Avg)) |
| --- | --- | --- | --- | --- |
| CC[C@H](C)[C@@H]1NC(=O)[C@@H](NC(=O)[C@H](CO)NC(=O)[C@@H](N)CCCNC(=N)N)CSSC[C@@H](C(=O)N[C@@H](C)C(=O)O)NC(=O)[C@H]([C@@H](C)O)NC(=O)CNC(=O)[C@@H]2CSSC[C@@H]3NC(=O)[C@H](CCCCN)NC(=O)[C@H](Cc4ccccc4)NC(=O)[C@H](C)NC(=O)[C@H]([C@@H](C)O)NC(=O)[C@H](CSSC[C@H](NC(=O)[C@H](Cc4ccccc4)NC(=O)[C@H](CO)NC(=O)[C@H](CC(C)C)NC(=O)[C@H](CCCNC(=N)N)NC(=O)[C@H](Cc4ccc(O)cc4)NC(=O)[C@H](CCCCN)NC(=O)[C@H](CC(N)=O)NC(=O)[C@H](CO)NC(=O)[C@H](Cc4c[nH]cn4)NC(=O)[C@H](CCCCN)NC3=O)C(=O)N[C@@H](CCCNC(=N)N)C(=O)N[C@@H](CCCCN)C(=O)N[C@@H]([C@@H](C)O)C(=O)N2)NC(=O)[C@H](CCCNC(=N)N)NC(=O)[C@H](CO)NC(=O)[C@H](CCCCN)NC(=O)[C@@H]2CCCN2C(=O)[C@H]([C@@H](C)CC)NC(=O)[C@H]([C@@H](C)O)NC(=O)[C@H](CC(=O)O)NC1=O [[Lys16,Asn21]ShK-Ala] | 33 nM | 0.891 nM | 0.693 nM |  |
| CC[C@H](C)[C@@H]1NC(=O)[C@@H](NC(=O)[C@H](CO)NC(=O)[C@@H](N)CCCNC(=N)N)CSSC[C@@H](C(N)=O)NC(=O)[C@H]([C@@H](C)O)NC(=O)CNC(=O)[C@@H]2CSSC[C@@H]3NC(=O)[C@H](CCCCN)NC(=O)[C@H](Cc4ccccc4)NC(=O)[C@H](C)NC(=O)[C@H]([C@@H](C)O)NC(=O)[C@H](CSSC[C@H](NC(=O)[C@H](Cc4ccccc4)NC(=O)[C@H](CO)NC(=O)[C@H](CC(C)C)NC(=O)[C@H](CCCNC(=N)N)NC(=O)[C@H](Cc4ccc(O)cc4)NC(=O)[C@H](CCCCN)NC(=O)[C@H](Cc4ccc(O)cc4)NC(=O)[C@H](CO)NC(=O)[C@H](Cc4c[nH]cn4)NC(=O)[C@H](CCCCN)NC3=O)C(=O)N[C@@H](CCCNC(=N)N)C(=O)N[C@@H](CCCCN)C(=O)N[C@@H]([C@@H](C)O)C(=O)N2)NC(=O)[C@H](CCCNC(=N)N)NC(=O)[C@H](CO)NC(=O)[C@H](CCCCN)NC(=O)[C@@H]2CCCN2C(=O)[C@H]([C@@H](C)CC)NC(=O)[C@H]([C@@H](C)O)NC(=O)[C@H](CC(=O)O)NC1=O [[Lys16, Tyr21]ShK-amide] | 0.246 nM | 2.83 nM | 3.19 nM |  |
| CC[C@H](C)[C@@H]1NC(=O)[C@@H](NC(=O)[C@H](CO)NC(=O)[C@@H](N)CCCNC(=N)N)CSSC[C@@H](C(N)=O)NC(=O)[C@H]([C@@H](C)O)NC(=O)CNC(=O)[C@@H]2CSSC[C@@H]3NC(=O)[C@H](CCCCN)NC(=O)[C@H](Cc4ccccc4)NC(=O)[C@H](C)NC(=O)[C@H]([C@@H](C)O)NC(=O)[C@H](CSSC[C@H](NC(=O)[C@H](Cc4ccccc4)NC(=O)[C@H](Cc4ccc5ccccc5c4)NC(=O)[C@H](CC(C)C)NC(=O)[C@H](CCCNC(=N)N)NC(=O)[C@H](Cc4ccc(O)cc4)NC(=O)[C@H](CCCCN)NC(=O)[C@H](CCSC)NC(=O)[C@H](CO)NC(=O)[C@H](Cc4c[nH]cn4)NC(=O)[C@H](CCCCN)NC3=O)C(=O)N[C@@H](CCCCN)C(=O)N[C@@H](CCCCN)C(=O)N[C@@H]([C@@H](C)O)C(=O)N2)NC(=O)[C@H](CCCNC(=N)N)NC(=O)[C@H](CO)NC(=O)[C@H](CCCCN)NC(=O)[C@@H]2CCCN2C(=O)[C@H]([C@@H](C)CC)NC(=O)[C@H]([C@@H](C)O)NC(=O)[C@H](CC(=O)O)NC1=O [[Lys16,29;2-Na126]ShK-amide] | 0.762 nM | 0.222 nM | 0.148 nM |  |
| CCCC[C@@H]1NC(=O)[C@H](CO)NC(=O)[C@H](Cc2c[nH]cn2)NC(=O)[C@H](CCCCN)NC(=O)[C@@H]2CSSC[C@@H]3NC(=O)[C@H]([C@@H](C)O)NC(=O)[C@H](C)NC(=O)[C@H](CCCCN)NC(=O)[C@H](CSSC[C@H](NC(=O)[C@H](CCCNC(=N)N)NC(=O)[C@H](CO)NC(=O)[C@H](CCCCN)NC(=O)[C@@H]4CCCN4C(=O)[C@H]([C@@H](C)CC)NC(=O)[C@H]([C@@H](C)O)NC(=O)[C@H](CC(=O)O)NC(=O)[C@H]([C@@H](C)CC)NC(=O)[C@@H](NC(=O)[C@H](CO)NC(=O)[C@@H](N)CCCNC(=N)N)CSSC[C@@H](C(N)=O)NC(=O)[C@H]([C@@H](C)O)NC(=O)CNC3=O)C(=O)N[C@@H]([C@@H](C)O)C(=O)N[C@@H](C)C(=O)N[C@@H](Cc3ccccc3)C(=O)N[C@@H](CCCCN)C(=O)N2)NC(=O)[C@H](Cc2ccccc2)NC(=O)[C@H](CO)NC(=O)[C@H](CC(C)C)NC(=O)[C@H](CCCNC(=N)N)NC(=O)[C@H](Cc2ccc(O)cc2)NC(=O)[C@H](CCCCN)NC1=O [[Lys16, 29; Ala30,Nle21]ShK-amide] | 0.057 nM | 0.791 nM | 1.7 nM |  |
| CCCC[C@@H]1NC(=O)[C@H](CO)NC(=O)[C@H](Cc2c[nH]cn2)NC(=O)[C@H](CCCCN)NC(=O)[C@@H]2CSSC[C@@H]3NC(=O)[C@H]([C@@H](C)O)NC(=O)[C@H](CCCNC(=N)N)NC(=O)[C@H](CCCNC(=N)N)NC(=O)[C@H](CSSC[C@H](NC(=O)[C@H](CCCNC(=N)N)NC(=O)[C@H](CO)NC(=O)[C@H](CCCCN)NC(=O)[C@@H]4CCCN4C(=O)[C@H]([C@@H](C)CC)NC(=O)[C@H]([C@@H](C)O)NC(=O)[C@H](CC(=O)O)NC(=O)[C@H](CCC(=O)O)NC(=O)[C@@H](NC(=O)[C@H](CO)NC(=O)[C@@H](N)CCCNC(=N)N)CSSC[C@@H](C(N)=O)NC(=O)[C@H]([C@@H](C)O)NC(=O)CNC3=O)C(=O)N[C@@H]([C@@H](C)O)C(=O)N[C@@H](C)C(=O)N[C@@H](C)C(=O)N[C@@H](CCCCN)C(=O)N2)NC(=O)[C@H](Cc2ccccc2)NC(=O)[C@H](CO)NC(=O)[C@H](CC(C)C)NC(=O)[C@H](CCCNC(=N)N)NC(=O)[C@H](Cc2ccc(O)cc2)NC(=O)[C@H](CCCCN)NC1=O [[Glu4,Ala15,Lys16,Nle21, Arg30]ShK-amide] | 0.118 nM | 0.647 nM | 0.816 nM |  |
| CC[C@H](C)[C@@H]1NC(=O)[C@@H](NC(=O)[C@H](CO)NC(=O)[C@@H](N)CCCNC(=N)N)CSSC[C@@H](C(=O)O)NC(=O)[C@H]([C@@H](C)O)NC(=O)CNC(=O)[C@@H]2CSSC[C@@H]3NC(=O)[C@H](CCC(N)=O)NC(=O)[C@H](Cc4ccccc4)NC(=O)[C@H](C)NC(=O)[C@H]([C@@H](C)O)NC(=O)[C@H](CSSC[C@H](NC(=O)[C@H](Cc4ccccc4)NC(=O)[C@H](CO)NC(=O)[C@H](CC(C)C)NC(=O)[C@H](CCCNC(=N)N)NC(=O)[C@H](Cc4ccc(O)cc4)NC(=O)[C@H](CCCCN)NC(=O)[C@H](CCSC)NC(=O)[C@H](CO)NC(=O)[C@H](Cc4c[nH]cn4)NC(=O)[C@H](CCCCN)NC3=O)C(=O)N[C@@H](CCCNC(=N)N)C(=O)N[C@@H](CCCCN)C(=O)N[C@@H]([C@@H](C)O)C(=O)N2)NC(=O)[C@H](CCCNC(=N)N)NC(=O)[C@H](CO)NC(=O)[C@H](CCCCN)NC(=O)[C@@H]2CCCN2C(=O)[C@H]([C@@H](C)CC)NC(=O)[C@H]([C@@H](C)O)NC(=O)[C@H](CCC(=O)O)NC1=O [[Glu5]ShK] | 3.3 nM | 16.9 nM |  | 24.6 nM |
| CC[C@H](C)[C@@H]1NC(=O)[C@@H](NC(=O)[C@H](CO)NC(=O)[C@@H](N)CCCNC(=N)N)CSSC[C@@H](C(=O)O)NC(=O)[C@H]([C@@H](C)O)NC(=O)CNC(=O)[C@@H]2CSSC[C@@H]3NC(=O)[C@H](CCCCN)NC(=O)[C@H](Cc4ccccc4)NC(=O)[C@H](C)NC(=O)[C@H]([C@@H](C)O)NC(=O)[C@H](CSSC[C@H](NC(=O)[C@H](Cc4ccccc4)NC(=O)[C@H](CO)NC(=O)[C@H](CC(C)C)NC(=O)[C@H](CCCNC(=N)N)NC(=O)[C@H](Cc4ccc(O)cc4)NC(=O)[C@H](CCCCN)NC(=O)[C@H](CCSC)NC(=O)[C@H](CO)NC(=O)[C@H](Cc4c[nH]cn4)NC(=O)[C@H](CCCNC(=N)N)NC3=O)C(=O)N[C@@H](CCCNC(=N)N)C(=O)N[C@@H](CCCCN)C(=O)N[C@@H]([C@@H](C)O)C(=O)N2)NC(=O)[C@H](CCCNC(=N)N)NC(=O)[C@H](CO)NC(=O)[C@H](CCCCN)NC(=O)[C@@H]2CCCN2C(=O)[C@H]([C@@H](C)CC)NC(=O)[C@H]([C@@H](C)O)NC(=O)[C@H](CC(=O)O)NC1=O [[Lys16,Arg18]ShK] | 0.425 nM | 0.077 nM | 0.097 nM |  |
| CC[C@H](C)[C@@H]1NC(=O)[C@@H](NC(=O)[C@H](CO)NC(=O)[C@@H](N)CCCNC(=N)N)CSSC[C@@H](C(N)=O)NC(=O)[C@H]([C@@H](C)O)NC(=O)CNC(=O)[C@@H]2CSSC[C@@H]3NC(=O)[C@H](CCCCN)NC(=O)[C@H](Cc4ccccc4)NC(=O)[C@H](C)NC(=O)[C@H]([C@@H](C)O)NC(=O)[C@H](CSSC[C@H](NC(=O)[C@H](Cc4ccccc4)NC(=O)[C@H](Cc4ccc(O)cc4)NC(=O)[C@H](CC(C)C)NC(=O)[C@H](CCCNC(=N)N)NC(=O)[C@H](Cc4ccc(O)cc4)NC(=O)[C@H](CCCCN)NC(=O)[C@H](CCSC)NC(=O)[C@H](CO)NC(=O)[C@H](Cc4c[nH]cn4)NC(=O)[C@H](CCCCN)NC3=O)C(=O)N[C@@H](CCCCN)C(=O)N[C@@H](CCCCN)C(=O)N[C@@H]([C@@H](C)O)C(=O)N2)NC(=O)[C@H](CCCNC(=N)N)NC(=O)[C@H](CO)NC(=O)[C@H](CCCCN)NC(=O)[C@@H]2CCCN2C(=O)[C@H]([C@@H](C)CC)NC(=O)[C@H]([C@@H](C)O)NC(=O)[C@H](CC(=O)O)NC1=O [[Lys16,29;Tyr26]ShK-amide] | 0.084 nM | 1.04 nM | 0.754 nM |  |
